According to patent publication US10112918B2, “15-oxospiramilactone derivatives, preparation method and uses thereof” (Kunming Institute of Botany, The Chinese Academy of Sciences, priority 2013, dated 2018):
Where two headings read alike, the source gives them in different places.

Legend:
Type in all cases: cell-based
[1] = system: HL-60 (human promyelocytic leukemia cells); assay: MTT inhibition of tumor cell growth, HL-60; details: Homo sapiens
How it was run: (§1)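 Compound exposure lasts 48 h at 37° C on cells plated at 5000-10000 per well in serum-containing medium. Viability is read by MTT reduction at 595 nm, and IC50 is computed with the two-point Reed and Muench method.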

[2] = system: SMMC-7721 (human hepatoma cells); assay: MTT inhibition of tumor cell growth, SMMC-7721; details: Homo sapiens
How it was run: as §1

[3] = system: A-549 (Human lung adenocarcinoma cells); assay: MTT inhibition of tumor cell growth, A-549; details: Homo sapiens
How it was run: as §1

[4] = system: MCF-7 (human breast cancer cells); assay: MTT inhibition of tumor cell growth, MCF-7; details: Homo sapiens
How it was run: as §1

[5] = system: SW-480 (human colon cancer cells); assay: MTT inhibition of tumor cell growth, SW-480; details: Homo sapiens
How it was run: as §1

[6] = system: Wnt signaling pathway (Top-Flash reporter gene); assay: Top-Flash Wnt reporter gene assay in HEK293T cells with Wnt3a conditioned medium; details: Homo sapiens, HEK-293T, 6 h, 6 h
How it was run: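 IC50 is the concentration giving relative residual reporter activity of 0.5 by 4-parameter logistic fit, after subtracting conditioned-medium DMSO background and normalizing to Wnt-induced signal. Luciferase read from HEK293T carrying TOP-flash and GFP internal standard, exposed 6 h to L-cell Wnt3a conditioned medium plus compound.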

[7] = HL-60, 48 h, Table 1, 7-hydroxy derivatives of S-3
[8] = SMMC-7721, 48 h, Table 1, 7-hydroxy derivatives of S-3
[9] = A549, 48 h, Table 1, 7-hydroxy derivatives of S-3
[10] = MCF7, 48 h, Table 1, 7-hydroxy derivatives of S-3
[11] = SW480, 48 h, Table 1, 7-hydroxy derivatives of S-3, read-out: IC50 SW-480
[12] = Table 7 (second), derivatives modified on 7-hydroxyl of S-3, HEK293T, Wnt3a conditioned medium, read-out: IC50 (μM), inhibitory activity on the Wnt signaling pathway
[13] = HL-60, 48 h, Table 2, derivatives having potential Michael reaction acceptor
[14] = SMMC-7721, 48 h, Table 2, derivatives having potential Michael reaction acceptor
[15] = A549, 48 h, Table 2, derivatives having potential Michael reaction acceptor
[16] = MCF7, 48 h, Table 2, derivatives having potential Michael reaction acceptor
[17] = SW480, 48 h, Table 2, derivatives having potential Michael reaction acceptor, read-out: IC50 SW-480
[18] = SW480, 48 h, Table 6, 7-carbonyl derivatives, read-out: IC50 SW-480, 7-carbonyl derivatives
[19] = Table 8, HEK293T, Wnt3a conditioned medium, read-out: IC50 (μM), inhibitory activity on the Wnt signaling pathway
[20] = SW480, 48 h, Table 6, 7-hydroxyl derivatives and controls, read-out: IC50 SW-480, 7-hydroxyl derivatives
[21] = HL-60, 48 h, Table 5, derivatives having double Michael reaction acceptor
[22] = SMMC-7721, 48 h, Table 5, derivatives having double Michael reaction acceptor
[23] = A549, 48 h, Table 5, derivatives having double Michael reaction acceptor
[24] = MCF7, 48 h, Table 5, derivatives having double Michael reaction acceptor
[25] = SW480, 48 h, Table 5, derivatives having double Michael reaction acceptor, read-out: IC50 SW-480
[26] = SW480, 48 h, Table 6, double Michael reaction acceptor derivatives, read-out: IC50 SW-480, derivatives having double Michael reaction acceptor
[27] = Table 9, HEK293T, Wnt3a conditioned medium, read-out: IC50(μM), inhibitory activity on the Wnt signaling pathway
[28] = HL-60, 48 h, Table 4, derivatives obtained by reduction of the lactonic ring
[29] = SMMC-7721, 48 h, Table 4, derivatives obtained by reduction of the lactonic ring
[30] = A549, 48 h, Table 4, derivatives obtained by reduction of the lactonic ring
[31] = MCF7, 48 h, Table 4, derivatives obtained by reduction of the lactonic ring
[32] = SW480, 48 h, Table 4, derivatives obtained by reduction of the lactonic ring, read-out: IC50 SW-480
[33] = HL-60, Table 7 (first), alkaloid derivatives, 48 h
[34] = SMMC-7721, Table 7 (first), alkaloid derivatives, 48 h
[35] = A549, Table 7 (first), alkaloid derivatives, 48 h
[36] = MCF7, Table 7 (first), alkaloid derivatives, 48 h
[37] = SW480, Table 7 (first), alkaloid derivatives, 48 h, read-out: IC50 SW-480
[38] = read-out: IC50 (μM), inhibitory activity on the Wnt signaling pathway

C=C1C(=O)C23CC[C@H]1CC2[C@@]12CCC[C@@](C)(COC1=O)C2C[C@H]3OC(=O)CCCl (some centres unmarked) [Compound 1h]
IC50 [1, 7]: 4.59 µM
IC50 [2, 8]: 3.5 µM
IC50 [3, 9]: 2.61 µM
IC50 [4, 10]: 2.7 µM
IC50 [5, 11]: 3.38 µM
IC50 [6, 12]: 20.2 ± 0.99 µM

C=C1C(=O)[C@]23CC[C@H]1CC2[C@@]12CCC[C@@](C)(COC1=O)C2CC3=O (some centres unmarked) [Compound 7]
IC50 [1, 13]: 4.56 µM
IC50 [2, 14]: 4.72 µM
IC50 [3, 15]: 3.16 µM
IC50 [4, 16]: 4.61 µM
IC50 [5, 17]: 3.74 µM
IC50 [5, 18]: 2.63 µM
IC50 [6, 12]: 12.1 ± 1.88 µM
IC50 [6, 19]: 12.1 µM

C=C1C(=O)[C@]23CC[C@H]1CC2[C@@]12CCC[C@@](C)(CO[C@H]1OC)C2C[C@H]3O (some centres unmarked) [Compound 21]
IC50 ([1]; HL-60, 48 h, Table 3, single Michael reaction acceptor, modified lactonic ring): 4.2 µM
IC50 ([2]; SMMC-7721, 48 h, Table 3, single Michael reaction acceptor, modified lactonic ring): 1.87 µM
IC50 ([3]; A549, 48 h, Table 3, single Michael reaction acceptor, modified lactonic ring): 3.17 µM
IC50 ([4]; MCF7, 48 h, Table 3, single Michael reaction acceptor, modified lactonic ring): 5.04 µM
IC50 ([5]; SW480, 48 h, Table 3, single Michael reaction acceptor, modified lactonic ring, read-out: IC50 SW-480): 4.19 µM
IC50 [5, 20]: 2.9 µM
IC50 [6, 19]: 27.4 ± 0.98 µM

C=C1C(=O)C23CC[C@H]1CC2[C@@]12CCC[C@@](C)(COC1=O)C2C[C@H]3OS(C)(=O)=O (some centres unmarked) [Compound 1q]
IC50 [1, 7]: 5.15 µM
IC50 [2, 8]: 10.5 µM
IC50 [3, 9]: 4.17 µM
IC50 [4, 10]: 3.82 µM
IC50 [5, 11]: 3.43 µM
IC50 [6, 12]: 15.1 ± 2.89 µM

C=C1C(=O)[C@@]23CC[C@@H](CC2[C@@]24CCC[C@@](C)(COC2=O)C14)C(=C)C3=O (some centres unmarked) [Compound 8]
IC50 [1, 21]: 2.02 µM
IC50 [2, 22]: 0.72 µM
IC50 [3, 23]: 0.59 µM
IC50 [4, 24]: 0.96 µM
IC50 [5, 25]: 0.66 µM
IC50 [5, 26]: 0.45 µM
IC50 [6, 27]: 4.09 ± 0.07 µM

C=C1C(=O)C23CC[C@H]1CC2[C@]1(COC(C)=O)CCC[C@@](C)(COC(C)=O)C1CC3=O (some centres unmarked) [Compound 47]
IC50 [1, 13]: 3.38 µM
IC50 [1, 28]: 3.38 µM
IC50 [2, 14]: 3.91 µM
IC50 [2, 29]: 3.91 µM
IC50 [3, 15]: 2.95 µM
IC50 [3, 30]: 2.95 µM
IC50 [4, 16]: 3.38 µM
IC50 [4, 31]: 3.38 µM
IC50 [5, 17]: 3.74 µM
IC50 [5, 32]: 3.74 µM
IC50 [5, 18]: 3.67 µM
IC50 [6, 19]: 16.9 ± 1.89 µM

C=C1C(=O)C23CC[C@H]1CC2[C@@]12CCC[C@@](C)(COC1=O)C2C[C@H]3OS(=O)(=O)c1ccccc1 (some centres unmarked) [Compound 1s]
IC50 [1, 7]: 3.53 µM
IC50 [2, 8]: 3.83 µM
IC50 [3, 9]: 2.69 µM
IC50 [4, 10]: 4.18 µM
IC50 [5, 11]: 2.89 µM
IC50 [6, 12]: 12.4 ± 1 µM

C=C1C(=O)C23CC[C@H]1CC2[C@]1(COC(C)=O)CCC[C@@](C)(COC(C)=O)C1C[C@H]3O (some centres unmarked) [Compound 45]
IC50 [1, 28]: 4.74 µM
IC50 [2, 29]: 7.83 µM
IC50 [3, 30]: 3.49 µM
IC50 [4, 31]: 4.82 µM
IC50 [5, 32]: 9.89 µM
IC50 [5, 20]: 2.81 µM
IC50 [6, 19]: 9.98 ± 1 µM

C=C1C(=O)[C@]23CC[C@H]1CC2[C@@]12CCC[C@@](C)(COC1=O)C2C[C@@H]3S(=O)(=O)c1ccccc1[N+](=O)[O-] (some centres unmarked) [Compound 1v]
IC50 [1, 7]: 9.64 µM
IC50 [2, 8]: 26.9 µM
IC50 [3, 9]: 16.6 µM
IC50 [4, 10]: 11.1 µM
IC50 [5, 11]: 14.7 µM
IC50 [6, 12]: > 60 µM

C=C1C(=O)C23CC[C@H]1CC2[C@]1(COC(C)=O)CCC[C@@](C)(COC(C)=O)C1[C@H](CO)C3=O (some centres unmarked) [Compound 48]
IC50 [1, 13]: 5.03 µM
IC50 [2, 14]: 6.13 µM
IC50 [3, 15]: 3.04 µM
IC50 [4, 16]: 2.93 µM
IC50 [5, 17]: 3.94 µM
IC50 [6, 27]: 46.9 ± 1.26 µM

C=C1C(=O)[C@@]23CC[C@@H](CC2[C@@]24CCC[C@@](C)(CN(CCO)C2)C14)C(=C)C3=O (some centres unmarked) [Compound 93]
IC50 [1, 33]: 6.61 µM
IC50 [2, 34]: 11.5 µM
IC50 [3, 35]: 6.5 µM
IC50 [4, 36]: 3.57 µM
IC50 [5, 37]: 2.81 µM
IC50 [6, 38]: 17 ± 1.28 µM

C=C1C(=O)[C@@]23CC[C@@H](CC2[C@@]24CCC[C@@](C)(CN(CCO)C2)C14)C(=C)[C@@H]3O (some centres unmarked) [Compound 89]
IC50 [1, 33]: 4.82 µM
IC50 [2, 34]: 1.48 µM
IC50 [3, 35]: 3.04 µM
IC50 [4, 36]: 6.98 µM
IC50 [5, 37]: 9.84 µM
IC50 [6, 38]: 8.34 ± 0.9 µM

C=C1C(=O)C23CC[C@H]1CC2[C@]1(COC(=O)c2cccs2)CCC[C@@](C)(COC(=O)c2cccs2)C1CC3=O (some centres unmarked) [Compound 64]
IC50 [1, 28]: 0.61 µM
IC50 [2, 29]: 0.57 µM
IC50 [3, 30]: 0.7 µM
IC50 [4, 31]: 0.67 µM
IC50 [5, 32]: 0.59 µM
IC50 [5, 18]: 0.71 µM
IC50 [6, 19]: 7.83 ± 0.7 µM

C=C1C(=O)C23CC[C@@H](CC2[C@]2(COC(C)=O)CCC[C@@](C)(COC(=O)c4cccs4)C12)C(=C)C3=O (some centres unmarked) [Compound 67]
IC50 [1, 21]: 0.24 µM
IC50 [2, 22]: 0.13 µM
IC50 [3, 23]: 0.14 µM
IC50 [4, 24]: 0.15 µM
IC50 [5, 25]: 0.1 µM
IC50 [5, 26]: 0.13 µM
IC50 [6, 27]: 4.92 ± 0.69 µM

C=C1C(=O)C23CC[C@H]1CC2[C@]1(CO)CCC[C@@](C)(CO)C1C[C@H]3O (some centres unmarked) [Compound 46]
IC50 [1, 28]: 4.28 µM
IC50 [2, 29]: 4.48 µM
IC50 [3, 30]: 4.28 µM
IC50 [4, 31]: 8.07 µM
IC50 [5, 32]: 4.42 µM
IC50 ([6]; Table 10, HEK293T, Wnt3a conditioned medium, read-out: IC50 (μM), inhibitory activity on the Wnt signaling pathway): 27.7 ± 2.8 µM

C=C1C(=O)C23CC[C@@H](CC2[C@]2(COC(C)=O)CCC[C@@](C)(COC(C)=O)C12)C(=C)C3=O (some centres unmarked) [Compound 53]
IC50 [1, 21]: 1.21 µM
IC50 [2, 22]: 0.75 µM
IC50 [3, 23]: 0.64 µM
IC50 [4, 24]: 0.65 µM
IC50 [5, 25]: 0.78 µM
IC50 [5, 26]: 0.78 µM
IC50 [6, 27]: 7.3 µM

C=C1C(=O)[C@]23CC[C@H]1CC2[C@@]12CCC[C@@](C)(COC1=O)C2[C@H](SC)C3=O (some centres unmarked) [Compound 12]
IC50 [1, 13]: 4.69 µM
IC50 [2, 14]: 2.41 µM
IC50 [3, 15]: 3.14 µM
IC50 [4, 16]: 4.83 µM
IC50 [5, 17]: 3.71 µM
IC50 [6, 27]: 19.8 ± 1.34 µM
